pIC50: −log10 of the molar value.
Test system: 874868-142-R-J2-PDC complex spheroids, growth % test/control
Test: Anticancer human tumor 874868-142-R-J2-PDC patient-derived head and neck squamous carcinoma cell line growth inhibition [CLK]
Conditions: for pIC50: curve of first compound; for viability, T/C: stronger effect = lower value
Procedure, shortened: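 Patient-derived tumor cells grown as complex spheroids with HUVEC endothelial cells and mesenchymal stem cells, treated with drug combinations. Concentrations descend in half-log steps from near clinical Cmax, or from 10 microM if Cmax unknown.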

[1] = second compound 0.0316 µM, first compound 0.0316 µM
[2] = second compound 0.0316 µM, first compound 0.1 µM
[3] = second compound 0.0316 µM, first compound 0.316 µM
[4] = second compound 0.0316 µM, first compound 1 µM
[5] = second compound 0.0316 µM, first compound 3.16 µM
[6] = second compound 0.0316 µM, first compound 10 µM
[7] = second compound 0.1 µM, first compound 0.0316 µM
[8] = second compound 0.1 µM, first compound 0.1 µM
[9] = second compound 0.1 µM, first compound 0.316 µM
[10] = second compound 0.1 µM, first compound 1 µM
[11] = second compound 0.1 µM, first compound 3.16 µM
[12] = second compound 0.1 µM, first compound 10 µM
[13] = second compound 0.316 µM, first compound 0.0316 µM
[14] = second compound 0.316 µM, first compound 0.1 µM
[15] = second compound 0.316 µM, first compound 0.316 µM
[16] = second compound 0.316 µM, first compound 1 µM
[17] = second compound 0.316 µM, first compound 3.16 µM
[18] = second compound 0.316 µM, first compound 10 µM
[19] = second compound 1 µM, first compound 0.0316 µM
[20] = second compound 1 µM, first compound 0.1 µM
[21] = second compound 1 µM, first compound 0.316 µM
[22] = second compound 1 µM, first compound 1 µM
[23] = second compound 1 µM, first compound 3.16 µM
[24] = second compound 1 µM, first compound 10 µM
[25] = second compound 3.16 µM, first compound 0.0316 µM
[26] = second compound 3.16 µM, first compound 0.1 µM
[27] = second compound 3.16 µM, first compound 0.316 µM
[28] = second compound 3.16 µM, first compound 1 µM
[29] = second compound 3.16 µM, first compound 3.16 µM
[30] = second compound 3.16 µM, first compound 10 µM
[31] = second compound 10 µM, first compound 0.0316 µM
[32] = second compound 10 µM, first compound 0.1 µM
[33] = second compound 10 µM, first compound 0.316 µM
[34] = second compound 10 µM, first compound 1 µM
[35] = second compound 10 µM, first compound 3.16 µM
[36] = second compound 10 µM, first compound 10 µM
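Also: spheroids exposed to the compounds for 7 days.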
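For viability, T/C in this document: 100% = DMSO vehicle control viability.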

C#Cc1c(F)ccc2cc(O)cc(-c3ncc4c(N5CC6CCC(C5)N6)nc(OCC56CCCN5CC(F)C6)nc4c3F)c12 (stereo not given) + CNC(=O)c1ccc(Nc2nc(OC3CCCC3)c3c(-c4ccc5nc(C)oc5c4)c[nH]c3n2)c(OC)c1
pIC50 (second compound 0.0316 µM): 5.18
pIC50 (second compound 0.1 µM): 6.06
pIC50 (second compound 0.316 µM): 7.05
pIC50 (second compound 1 µM): > 7.50
pIC50 (second compound 3.16 µM): > 7.50
pIC50 (second compound 10 µM): > 7.50
viability, T/C [1]: 92.7%
viability, T/C [2]: 75.7%
viability, T/C [3]: 80.7%
viability, T/C [4]: 65%
viability, T/C [5]: 54.3%
viability, T/C [6]: 47.1%
viability, T/C [7]: 72.5%
viability, T/C [8]: 84.5%
viability, T/C [9]: 66.5%
viability, T/C [10]: 48.4%
viability, T/C [11]: 51%
viability, T/C [12]: 43.3%
viability, T/C [13]: 58.1%
viability, T/C [14]: 48.5%
viability, T/C [15]: 44.2%
viability, T/C [16]: 43%
viability, T/C [17]: 39.8%
viability, T/C [18]: 39%
viability, T/C [19]: 41.6%
viability, T/C [20]: 39.4%
viability, T/C [21]: 36.5%
viability, T/C [22]: 35.2%
viability, T/C [23]: 35.1%
viability, T/C [24]: 31.6%
viability, T/C [25]: 37.1%
viability, T/C [26]: 37.8%
viability, T/C [27]: 31.1%
viability, T/C [28]: 30%
viability, T/C [29]: 30.5%
viability, T/C [30]: 33.8%
viability, T/C [31]: 35.8%
viability, T/C [32]: 37.4%
viability, T/C [33]: 33.9%
viability, T/C [34]: 32.6%
viability, T/C [35]: 32.4%
viability, T/C [36]: 26.8%

C=C(F)C(=O)N1CCN(c2nc(OCC3CCCN3C)nc3c2CCN(c2cccc4cccc(Cl)c24)C3)CC1CC#N (stereo not given) + CNC(=O)c1ccc(Nc2nc(OC3CCCC3)c3c(-c4ccc5nc(C)oc5c4)c[nH]c3n2)c(OC)c1
pIC50 (second compound 0.0316 µM): 5.46
pIC50 (second compound 0.1 µM): 5.47
pIC50 (second compound 0.316 µM): > 7.50
pIC50 (second compound 1 µM): > 7.50
pIC50 (second compound 3.16 µM): > 7.50
pIC50 (second compound 10 µM): > 7.50
viability, T/C [1]: 91.7%
viability, T/C [2]: 70.4%
viability, T/C [3]: 89.3%
viability, T/C [4]: 68.4%
viability, T/C [5]: 56.8%
viability, T/C [6]: 0.28%
viability, T/C [7]: 71.2%
viability, T/C [8]: 68.8%
viability, T/C [9]: 65.9%
viability, T/C [10]: 61.6%
viability, T/C [11]: 54.6%
viability, T/C [12]: 0.63%
viability, T/C [13]: 50.5%
viability, T/C [14]: 49.2%
viability, T/C [15]: 47.6%
viability, T/C [16]: 43.8%
viability, T/C [17]: 38.5%
viability, T/C [18]: 1.18%
viability, T/C [19]: 44.4%
viability, T/C [20]: 33%
viability, T/C [21]: 36.7%
viability, T/C [22]: 38.5%
viability, T/C [23]: 35.2%
viability, T/C [24]: 0.25%
viability, T/C [25]: 37.5%
viability, T/C [26]: 41.8%
viability, T/C [27]: 31%
viability, T/C [28]: 38%
viability, T/C [29]: 32.2%
viability, T/C [30]: 7.83%
viability, T/C [31]: 36.1%
viability, T/C [32]: 35.1%
viability, T/C [33]: 38.1%
viability, T/C [34]: 39.1%
viability, T/C [35]: 31.1%
viability, T/C [36]: 3.95%

C=CC(=O)N1CCN(c2nc(=O)n(-c3c(C)ccnc3C(C)C)c3nc(-c4c(O)cccc4F)c(F)cc23)C(C)C1 (stereo not given) + CNC(=O)c1ccc(Nc2nc(OC3CCCC3)c3c(-c4ccc5nc(C)oc5c4)c[nH]c3n2)c(OC)c1
pIC50 (second compound 0.0316 µM): < 5.00
pIC50 (second compound 0.1 µM): < 5.00
pIC50 (second compound 0.316 µM): < 5.00
pIC50 (second compound 1 µM): > 7.50
pIC50 (second compound 3.16 µM): > 7.50
pIC50 (second compound 10 µM): > 7.50
viability, T/C [1]: 99.7%
viability, T/C [2]: 82.6%
viability, T/C [3]: 96.6%
viability, T/C [4]: 108%
viability, T/C [5]: 124%
viability, T/C [6]: 103%
viability, T/C [7]: 82.7%
viability, T/C [8]: 91.5%
viability, T/C [9]: 90.3%
viability, T/C [10]: 92.1%
viability, T/C [11]: 101%
viability, T/C [12]: 88%
viability, T/C [13]: 50.4%
viability, T/C [14]: 59.7%
viability, T/C [15]: 56.9%
viability, T/C [16]: 53.4%
viability, T/C [17]: 59%
viability, T/C [18]: 58.3%
viability, T/C [19]: 40.6%
viability, T/C [20]: 47.7%
viability, T/C [21]: 36.3%
viability, T/C [22]: 46.1%
viability, T/C [23]: 41.2%
viability, T/C [24]: 40.6%
viability, T/C [25]: 42.8%
viability, T/C [26]: 39.2%
viability, T/C [27]: 41.1%
viability, T/C [28]: 45.2%
viability, T/C [29]: 53%
viability, T/C [30]: 36.4%
viability, T/C [31]: 31.3%
viability, T/C [32]: 33.5%
viability, T/C [33]: 35.4%
viability, T/C [34]: 41%
viability, T/C [35]: 40%
viability, T/C [36]: 28.3%

CCCS(=O)(=O)Nc1ccc(F)c(C(=O)c2c[nH]c3ncc(-c4ccc(Cl)cc4)cc23)c1F + CNC(=O)c1ccc(Nc2nc(OC3CCCC3)c3c(-c4ccc5nc(C)oc5c4)c[nH]c3n2)c(OC)c1
pIC50 (second compound 0.0316 µM): < 5.00
pIC50 (second compound 0.1 µM): < 5.00
pIC50 (second compound 0.316 µM): < 5.00
pIC50 (second compound 1 µM): > 7.50
pIC50 (second compound 3.16 µM): > 7.50
pIC50 (second compound 10 µM): > 7.50
viability, T/C [1]: 119%
viability, T/C [2]: 122%
viability, T/C [3]: 133%
viability, T/C [4]: 143%
viability, T/C [5]: 139%
viability, T/C [6]: 87.8%
viability, T/C [7]: 101%
viability, T/C [8]: 104%
viability, T/C [9]: 110%
viability, T/C [10]: 144%
viability, T/C [11]: 140%
viability, T/C [12]: 84.6%
viability, T/C [13]: 62.2%
viability, T/C [14]: 59.6%
viability, T/C [15]: 59.6%
viability, T/C [16]: 61.8%
viability, T/C [17]: 67.9%
viability, T/C [18]: 53.2%
viability, T/C [19]: 40.9%
viability, T/C [20]: 38.2%
viability, T/C [21]: 46.8%
viability, T/C [22]: 54.9%
viability, T/C [23]: 49.3%
viability, T/C [24]: 45.3%
viability, T/C [25]: 41.2%
viability, T/C [26]: 38%
viability, T/C [27]: 41.8%
viability, T/C [28]: 38.8%
viability, T/C [29]: 53.8%
viability, T/C [30]: 32%
viability, T/C [31]: 38.8%
viability, T/C [32]: 44.1%
viability, T/C [33]: 50.2%
viability, T/C [34]: 37.6%
viability, T/C [35]: 52.4%
viability, T/C [36]: 45.2%

COC1C=CCC(C)C(C)S(=O)(=O)NC(=O)c2ccc3c(c2)N(CC2CCC21)CC1(CCCc2cc(Cl)ccc21)CO3 (stereo not given) + CNC(=O)c1ccc(Nc2nc(OC3CCCC3)c3c(-c4ccc5nc(C)oc5c4)c[nH]c3n2)c(OC)c1
pIC50 (second compound 0.0316 µM): 6.15
pIC50 (second compound 0.1 µM): 6.12
pIC50 (second compound 0.316 µM): 7.10
pIC50 (second compound 1 µM): > 7.50
pIC50 (second compound 3.16 µM): > 7.50
pIC50 (second compound 10 µM): > 7.50
viability, T/C [1]: 92.5%
viability, T/C [2]: 87.4%
viability, T/C [3]: 64.6%
viability, T/C [4]: 42.1%
viability, T/C [5]: 28.4%
viability, T/C [6]: 15.8%
viability, T/C [7]: 92.2%
viability, T/C [8]: 68%
viability, T/C [9]: 57.1%
viability, T/C [10]: 56.6%
viability, T/C [11]: 28%
viability, T/C [12]: 13.2%
viability, T/C [13]: 58.7%
viability, T/C [14]: 49.1%
viability, T/C [15]: 35.6%
viability, T/C [16]: 29.1%
viability, T/C [17]: 25%
viability, T/C [18]: 14.3%
viability, T/C [19]: 44.4%
viability, T/C [20]: 34.8%
viability, T/C [21]: 24.9%
viability, T/C [22]: 18.6%
viability, T/C [23]: 14.8%
viability, T/C [24]: 16.8%
viability, T/C [25]: 36.9%
viability, T/C [26]: 28.7%
viability, T/C [27]: 25.7%
viability, T/C [28]: 19.7%
viability, T/C [29]: 18.5%
viability, T/C [30]: 16.9%
viability, T/C [31]: 40.1%
viability, T/C [32]: 30.4%
viability, T/C [33]: 32.8%
viability, T/C [34]: 17.4%
viability, T/C [35]: 20.6%
viability, T/C [36]: 14.9%
